The subject of one data set is HIV-1 IIIb. The data set is described as follows: HIV-1 IIIb replication in PBMCs (p24 assay). Conditions: Human immunodeficiency virus 1, IIIB, PBMC, 7 days pretreatment, day 7 after infection. It is filed as cell-based. The protocol: (§1) Infectivity Assays: The following viruses were used in infection experiments: HIV-1 IIIb, HIV-1 ADA, HIV-1 BaL, HIV-1 JRFL, HIV-1 JRCSF, and HIV-1 SF162. HIV-1 IIIb is a T cell line-adapted lab strain that uses CXCR4 for entry into cells, whereas the rest are isolates that use CCR5. Viruses were obtained from the National Institutes of Health AIDS Research and Reference Reagent Program.
(§2) For infection of PBMCs, fresh donor PBMCs were cultured for 7 days in medium containing IL-2. On day 7, cells were exposed to the virus for 3 h. Nonadsorbed virus was removed by washing cells with PBS three times. Infected cells were cultured in IL-2 medium. Infection of MDMs was carried out as described before (Perno, 1993). Unless otherwise indicated, PBMCs were infected by using an moi of 0.001, and MDM were infected by using an moi of 0.002. Virus growth was monitored in culture supernatants by measuring p24 antigen levels by ELISA (NEN) or by measuring viral RT activity in an RT assay (Willey, 1988).
Antiviral Activity of RAPA in PBMCs: The antiviral activity of RAPA was assayed in PBMCs that had been cultured in the presence of RAPA for 7 days before infection. […] Infected cells were cultured in the presence of RAPA (same concentration as during pretreatment) for 7 additional days, during which time virus replication and cell viability were measured.

The test system of a further data set is MDMs. Briefly: Cell viability of infected MDMs (MTT assay). It is filed as cell-based, human. As to conditions: end of experiment (day 14 after infection). How it is done: To this end, donor monocytes were cultured for 5 days in the presence of RAPA. On day 5, cells were infected with HIV-1 ADA. Infected cells were cultured in the presence of RAPA for an additional 14 days. Virus production was measured on the culture supernatants on days 7, 10, and 14 after infection. Cell viability was measured by the MTT assay at the end of the experiment.

Data set [1] is described as follows: Tolerability of Rapamycin in HIV infected volunteers. Type of data set: in vivo, human. Conditions: 2 mg/day after 6 mg loading dose, 28 days. The protocol: To assess the expression activity of CCR5 and its effects on levels of CCR5 receptors in vivo, an open-labeled, non-randomized proof of concept trial was performed in which 8 volunteers with established HIV infection were given 2 mg/day of Rapamycin, following a 6 mg loading dose, for 28 days. Peripheral blood for determining expression levels of CCR5 was obtained at the screening visit, days 7, 14 and 28 of the Rapamycin dosing, and at day 42 (which was two weeks following the last dose of Rapamycin).

The subject of the next data set is MIP-1α. The data set is described as follows: Extracellular MIP-1α level in PBMC culture supernatants (ELISA). As to conditions: day 10, four donors. It is filed as cell-based, human.
The test system of a further data set is CCR5. Briefly: CCR5 surface expression on CD4 and CD8 T lymphocytes in IL-2 cultured PBMCs (flow cytometry, mAb 182). It is filed as cell-based, human. As to conditions: days 7 and 10, five donors tested. How it is done: CCR5 surface expression was measured on PBMCs cultured in the presence of IL-2 for 7-10 days.
A further data set concerns R5 strains of HIV-1. The data set is described as follows: Replication of a panel of five R5 strains of HIV-1 in PBMCs. Type of data set: cell-based. As to conditions: Human immunodeficiency virus 1, PBMC. How it is done:
as §1, §2
RAPA at 0.01 nM inhibited R5 HIV-1 by 10-64% depending on the strains, whereas 0.1 nM RAPA inhibited virus replication by 15-85%. At 1 nM RAPA, all R5 viruses were inhibited by ≧90%.

The next data set deals with MIP-1β. The data set is described as follows: Extracellular MIP-1β level in PBMC culture supernatants (ELISA). Type of data set: cell-based, human. As to conditions: for increase of MIP-1β protein versus untreated control: day 10. How it is done:
Levels of the β-chemokines MIP-1α, MIP-1β, and RANTES were measured in culture supernatants by using ELISA kits (R & D Systems).
RAPA Increases Extracellular Levels of MIP-1α and MIP-1β in PBMC Cultures: Because lymphocytes and monocytes cultured in the presence of RAPA presented reduced CCR5 RNA and protein levels, the levels of the CCR5 ligands MIP-1α, MIP-1β, and RANTES were measured in supernatants of RAPA-treated PBMC cultures. […] On day 10, percentage of cells expressing CCR5 and supernatant chemokine content were determined for each donor. […] Among the different donors, RAPA-treated cultures contained 6-39-fold higher levels of MIP-1α than untreated cultures. Similarly, MIP-1β levels were increased 17-47-fold in the presence of RAPA as compared with untreated controls. […] Chemokine results obtained in two of the donors, showing disparity of RANTES levels in the presence of RAPA, are depicted in FIG. 3A.
The above results were confirmed by evaluating the effect of RAPA on the secretion of MIP-1β, a chemokine that uses CCR5 as its only receptor, in cultures of PBMCs derived from a donor homozygous for the Δ32 mutation in the CCR5 gene. In this experimental setting, in which MIP-1β cannot be endocytosed by CCR5, the effect of RAPA on MIP-1β protein levels provided information regarding the mechanism by which RAPA increases β-chemokine levels. To this end, stimulated PBMCs from two normal donors and from a CCR5-null donor were cultured in the presence of RAPA as in previous experiments. MIP-1β levels in supernatants were evaluated on day 10. Representative results obtained in one of the normal donors are shown in FIG. 3B next to the results obtained on the CCR5-null donor.

On to `CO[C@H]1C[C@@H]2CC[C@@H](C)[C@@](O)(O2)C(=O)C(=O)N2CCCC[C@H]2C(=O)O[C@H]([C@H](C)C[C@@H]2CC[C@@H](O)[C@H](OC)C2)CC(=O)[C@H](C)/C=C(\C)[C@@H](O)[C@@H](OC)C(=O)[C@H](C)C[C@H](C)/C=C/C=C/C=C/1C` [RAPA, rapamycin], for which the inhibition at 0.01 µM with HIV-1 IIIb (10 nM RAPA) worked out at 13.5%. Also, in the data set on HIV-1 IIIb (100 nM RAPA), the inhibition at 0.1 µM worked out at 32%. Further, the “concentrations at which cell viability was reduced” value with MDMs is listed as ≥ 10 nM. Moreover, the tolerability result in data set [1] was “well-tolerated”. For the same compound, the “MIP-1α level versus untreated cultures” value in the data set on MIP-1α is 6-39 fold. For the same compound, in the data set on CCR5, the “concentrations that down-regulated CCR5 surface expression on CD4 lymphocytes” value is ≥ 1 nM. For the same compound, the inhibition at 10 pM in the data set with R5 strains of HIV-1 (read-out: inhibition of R5 HIV-1, depending on the strains) lay in the range of 10 to 64%. Further, in the data set with R5 strains of HIV-1 (read-out: inhibition of R5 HIV-1 replication), the inhibition at 0.0001 µM fell in the range of 15 to 85%. Moreover, the inhibition at 0.001 µM in the data set on R5 strains of HIV-1 (read-out: inhibition of all R5 viruses) is ≥ 90%. Also, the “increase of MIP-1β protein versus untreated control” value with MIP-1β (CCR5-null donor (Δ32 homozygous)) is listed as 1.2 fold; in the data set on MIP-1β (normal donor), 9.3 fold. Moreover, in the data set on MIP-1β (day 10, four donors), the “MIP-1β level versus untreated controls” value was 17-47 fold.

The values are drawn from patent US7863242B2, “Compositions for down-regulation of CCR5 expression and methods of use thereof” (priority 2003, dated 2011).
